“And” between values parts separate entries of the source, which are not always exact repeats. Identical values can stand only once.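 Values below derive from 48-hour exposures of cells grown in 96-well plates, with endpoints linearly interpolated between the two concentrations bracketing the appropriate inhibition level. GI50 = concentration required for 50% inhibition of growth.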 The source made the active and inactive calls. No stated cut-off is given here; in the data, active = GI50 up to about 1.1 µM and inactive = higher. *1 amine or outer side, *2 acyl side, *3 side chain or, on linkers, in order; H or OH if unused. Where a SMILES comes first, the peptide text is derived from it. [ ]: non-standard residue; d: D form. The star is where a group is joined. ξ: configuration not given here. NMeY = CN[C@@H](Cc1ccc(O)cc1)C(=O)O; Ethylenediamine = C(CN[*:2])N[*:1]; ξNMeL = CNC(CC(C)C)C(=O)O; Cbz = O=C(OCc1ccccc1)*; Lac = C[C@H](O)C(=O)O; ξA = CC(N)C(=O)O
What was measured:
Assay in all cases: inhibition of tumour cell growth, NCI panel, 48 h
DLD-1 = test system: DLD-1
DMS-114 = test system: DMS-114
DMS-273 = test system: DMS-273
HOP-18 = test system: HOP-18
LXFL 529 = test system: LXFL 529
RXF 631 = test system: RXF 631
SNB-78 = test system: SNB-78
BT-549 = test system: BT-549
XF498 = test system: XF498

SMILES | GI50 (DLD-1) | GI50 (DMS-114) | GI50 (DMS-273) | GI50 (LXFL 529) | GI50 (BT-549) | also measured
COc1c(CC(C)=O)ccc2c1C(=O)c1ccc(C=O)c(OC(C)=O)c1C2=O | 3.62 µM (inactive) | 12800 nM (inactive) | 10.2 µM (inactive) | 5.53 µM (inactive) | – | GI50 (HOP-18): 22.1 µM (inactive); GI50 (RXF 631): 20.6 µM (inactive); GI50 (SNB-78): 18200 nM (inactive)
C=CCOC(=O)C[C@H](NC(=O)[C@H](Cc1ccc(O)cc1)NCC(F)(F)F)C(=O)OCC=C | – | – | – | – | > 100 µM (inactive) | –
O=C1CSC2(CC(/C=C/c3ccccc3O)=NN2c2cccc(S(=O)(=O)O)c2)N1c1nc2ccccc2s1 (stereo not given) | – | – | – | – | 24.9 µM (inactive) | –
CC(=O)N1c2ccccc2N(C(C)=O)C1c1ccc(C2N(C(C)=O)c3ccccc3N2C(C)=O)[nH]1 | – | > 100000 nM (inactive) | > 100 µM (inactive) | > 100 µM (inactive) | – | GI50 (RXF 631): > 100 µM (inactive); GI50 (XF498): > 100000 nM (inactive)
CC1=CC(=O)/C(=C/NC(N)=S)C(=O)O1 | – | – | – | – | > 100 µM (inactive) | –
O=C1CC[C@@]2(O)[C@H]3Cc4ccc(-c5ccccc5)c5c4[C@@]2(CCN3CC2CC2)[C@H]1O5 | – | – | – | – | 14.3 µM (inactive) | –
O=C1/C(=C/c2cccc([N+](=O)[O-])c2)Sc2scc(-c3ccc([N+](=O)[O-])cc3)[n+]21 | – | – | – | – | 11.6 µM (inactive) | –
COC(=O)C1C(O)C(C)C(=O)C(C)/C=C\C=C(C)C(=O)Nc2c(C)c(OC(C)=O)c3c(c2O)C(=O)C(C)=C2OCOC(=C23)C(C)=CC(C)(O)C(O)C(C)C1O (stereo not given) | – | – | – | – | 42 µM (inactive) | –
CCN1C(=O)C(=CN)C(=O)N(CC)C1=O | > 100 µM (inactive) | > 100000 nM (inactive) | > 100 µM (inactive) | > 100 µM (inactive) | – | GI50 (HOP-18): 24.7 µM (inactive); GI50 (RXF 631): > 100 µM (inactive); GI50 (SNB-78): > 100000 nM (inactive)
O=C1/C(=C/c2ccc(O)cc2)CCC1CNc1ccccc1 (stereo not given) | – | – | – | – | 14.5 µM (inactive) | –
CC(=O)OC1C[C@@H](C)C2(C[C@H](O)c3ccoc3)C(=O)OC[C@]13C2CCC(O)C31CO1 (stereo not given in full) | – | – | – | – | > 100 µM (inactive) | –
CC(C)(C)NC(=O)C12C3C4C1C1C2C3C41C(=O)NC(C)(C)C (stereo not given) | – | – | – | – | > 100 µM (inactive) | –
CC1CCC(C(C)(C)c2ccccc2)C(=O)C1 (stereo not given) | > 100 µM (inactive) | 75700 nM (inactive) | > 100 µM (inactive) | > 100 µM (inactive) | – | GI50 (HOP-18): 24.8 µM (inactive); GI50 (SNB-78): > 100000 nM (inactive); GI50 (XF498): > 100000 nM (inactive)
CN1C(OCc2ccccc2)c2c(ccc3c2OCO3)C2C=Cc3cc4c(cc3C21)OCO4 (stereo not given) | 0.434 µM (active) | 305 nM (active) | – | 0.371 µM (active) | – | GI50 (HOP-18): 1.33 µM (inactive); GI50 (RXF 631): 0.841 µM (active); GI50 (SNB-78): 598 nM (active)
COC(=O)C1=C(O)C(C(=O)OC)[C@]2(O)[C@H](C(=O)OC)[C@H]1C[C@@H](c1ccc(O)cc1)[C@H]2C(=O)OC (stereo not given in full) | – | – | – | – | 26.2 µM (inactive) | –
O=C(O)Cc1ccc(Nc2nc3cc(C(F)(F)F)ccc3nc2C(=O)O)cc1 | – | – | – | – | > 100 µM (inactive) | –
CCCCC(=O)OCC(=O)[C@]1(O)Cc2c(O)c3c(c(O)c2[C@@H](OC2CC(NC(=O)C(F)(F)F)C(O)C(C)O2)C1)C(=O)c1c(OC)cccc1C3=O (stereo not given in full) | 0.538 µM (active) | 268 nM (active) | 0.138 µM (active) | 0.743 µM (active) | 2.11 µM (inactive) | GI50 (RXF 631): 0.682 µM (active); GI50 (XF498): 161 nM (active)
C/C(=C\c1ccccc1)C(O)S(=O)(=O)O (stereo not given) | > 100 µM (inactive) | > 100000 nM (inactive) | > 100 µM (inactive) | > 100 µM (inactive) | – | GI50 (HOP-18): > 100 µM (inactive)
CCOc1ccc(NCc2cc(OC)c(OC)c(OC)c2)cc1 | 1.11 µM (active) | 287 nM (active) | – | – | 0.125 µM (active) | –
CCCCCC(=O)N[C@H]1CCc2cc(OC)c(OC)c(OC)c2-c2ccc(SC)c(=O)cc21 | < 0.01 µM (active) | < 10 nM (active) | – | 0.0204 µM (active) | – | GI50 (SNB-78): 4.19 nM (active); GI50 (XF498): 23.9 nM (active)
COc1ccc2c(c1O)-c1c(OC)c(OC)cc3c1[C@H](C2)[N+](C)(C)CC3 | – | – | – | – | > 100 µM (inactive) | –
COc1cccc2c1C(=O)c1c(O)c3c(c(O)c1C2=O)C[C@@](O)(C(=O)CO)C[C@@H]3OC1CC(N)C(O)C(C)O1 (stereo not given in full) | – | 97.5 nM (active) | 0.0883 µM (active) | – | 438 nM (active) and 255 nM (active) | GI50 (HOP-18): 0.478 µM (active); GI50 (RXF 631): 0.912 µM (active); GI50 (SNB-78): 457 nM (active)
Nc1nc(O)c(Br)c(-c2cccc([N+](=O)[O-])c2)n1 | – | – | – | – | 38.6 µM (inactive) | –
CC(=O)c1csc2c1C(=O)c1ccccc1C2=O | – | – | – | – | 1.62 µM (inactive) | –
COc1ccc(C[C@@H](C(=O)NCCNC(=O)C(CC(C)C)N(C)C(=O)[C@@H]2CCCN2C(=O)[C@H](C)O)N(C)C(=O)[C@@H]2CCCN2C(=O)[C@H](CC(C)C)NC(=O)C(C)NC(=O)OCc2ccccc2)cc1 (stereo not given in full) (Cbz-[ξA]LP[NMeY](Me)-{Ethylenediamine-ξNMeL-Pro-Lac}) | – | – | – | – | > 100 µM (inactive) | –
CO[C@H]1Nc2c(ccc(C)c2O)C(=O)N2C=C(/C=C/C(N)=O)C[C@@H]12 [ANTHRAMYCIN METHYL ETHER] | 0.118 µM (active) | 21.3 nM (active) | 0.0295 µM (active) | – | 0.0143 µM (active) | GI50 (HOP-18): 0.444 µM (active); GI50 (SNB-78): 25.8 nM (active); GI50 (XF498): < 10 nM (active)

Source: ChEMBL document CHEMBL1201862, “PubChem BioAssay data set” (2004)
